Measurements from PubChem BioAssay (NCI).
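The compound was tested at five concentrations on cells cultured in 96-well plates, with a 48-hour exposure period. GI50 = concentration required for 50% inhibition of growth. Definition used: TGI = concentration required for complete inhibition of growth.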

Experiments:
Assay in all cases: growth of human tumour cells (NCI), 48 h
[1] = system: 786-0 renal
[2] = system: A498 renal
[3] = system: A549 NSCLC
[4] = system: ACHN renal
[5] = system: BT-549 breast
[6] = system: CAKI-1 renal
[7] = system: CCRF-CEM leukemia
[8] = system: COLO 205 colon
[9] = system: DU-145 prostate
[10] = system: EKVX NSCLC
[11] = system: HCC-2998 colon
[12] = system: HCT-116 colon
[13] = system: HCT-15 colon
[14] = system: HL-60(TB) leukemia
[15] = system: HOP-62 NSCLC
[16] = system: HOP-92 NSCLC
[17] = system: HS 578T breast
[18] = system: HT29 colon
[19] = system: IGROV1 ovarian
[20] = system: K-562 leukemia
[21] = system: KM12 colon
[22] = system: LOX IMVI melanoma
[23] = system: M14 melanoma
[24] = system: MALME-3M melanoma
[25] = system: MCF7 breast
[26] = system: MDA-MB-231 breast
[27] = system: MOLT-4 leukemia
[28] = system: NCI-H226 lung
[29] = system: NCI-H23 lung
[30] = system: NCI-H460 lung
[31] = system: NCI-H522 lung
[32] = system: NCI/ADR-RES ovarian
[33] = system: OVCAR-4 ovarian
[34] = system: OVCAR-5 ovarian
[35] = system: OVCAR-8 ovarian
[36] = system: PC-3 prostate
[37] = system: RPMI-8226 leukemia
[38] = system: RXF 393 renal
[39] = system: SF-268 CNS
[40] = system: SF-295 CNS
[41] = system: SF-539 CNS
[42] = system: SK-MEL-2 melanoma
[43] = system: SK-MEL-28 melanoma
[44] = system: SK-MEL-5 melanoma
[45] = system: SK-OV-3 ovarian
[46] = system: SN12C renal
[47] = system: SNB-19 CNS
[48] = system: SNB-75 CNS
[49] = system: SR leukemia
[50] = system: SW-620 colon
[51] = system: T-47D breast
[52] = system: TK-10 renal
[53] = system: U251 CNS
[54] = system: UACC-257 melanoma
[55] = system: UACC-62 melanoma
[56] = system: UO-31 renal

Compound: CCn1c2ccccc2c2cc(-n3nncc3-c3ccccc3)ccc21
- GI50 [1]: 0.34 µM
- TGI [1]: > 100 µM
- GI50 [2]: 0.0954 µM
- TGI [2]: 0.799 µM
- GI50 [3]: 0.208 µM
- TGI [3]: > 100 µM
- GI50 [4]: 0.301 µM
- TGI [4]: > 100 µM
- GI50 [5]: 0.147 µM
- TGI [5]: 2.03 µM
- GI50 [6]: 0.0775 µM
- TGI [6]: > 100 µM
- GI50 [7]: 0.203 µM
- TGI [7]: > 100 µM
- GI50 [8]: 0.134 µM
- TGI [8]: 0.438 µM
- GI50 [9]: 0.375 µM
- GI50 [10]: 0.532 µM
- TGI [10]: > 100 µM
- GI50 [11]: 0.277 µM
- TGI [11]: > 52.4 µM
- GI50 [12]: 0.0722 µM
- GI50 [13]: 0.067 µM
- TGI [13]: > 100 µM
- GI50 [14]: 0.0697 µM
- TGI [14]: > 20.3 µM
- GI50 [15]: 0.141 µM
- TGI [15]: > 100 µM
- TGI [16]: > 77.6 µM
- GI50 [17]: 0.0615 µM
- TGI [17]: > 100 µM
- GI50 [18]: 0.117 µM
- TGI [18]: 0.927 µM
- GI50 [19]: 0.164 µM
- TGI [19]: > 100 µM
- GI50 [20]: 0.0407 µM
- TGI [20]: > 100 µM
- GI50 [21]: 0.049 µM
- GI50 [22]: 0.129 µM
- TGI [22]: > 100 µM
- GI50 [23]: 0.0829 µM
- TGI [23]: > 100 µM
- GI50 [24]: 2.43 µM
- TGI [24]: > 100 µM
- GI50 [25]: 0.269 µM
- TGI [25]: > 100 µM
- GI50 [26]: 0.54 µM
- TGI [26]: > 100 µM
- GI50 [27]: 0.35 µM
- TGI [27]: > 100 µM
- GI50 [28]: 0.519 µM
- TGI [28]: > 100 µM
- GI50 [29]: 0.375 µM
- TGI [29]: > 100 µM
- GI50 [30]: 0.081 µM
- TGI [30]: > 62.6 µM
- GI50 [31]: 0.0302 µM
- TGI [31]: 0.145 µM
- GI50 [32]: 0.0534 µM
- TGI [32]: > 100 µM
- GI50 [33]: 29.7 µM
- TGI [33]: > 100 µM
- GI50 [34]: 0.41 µM
- TGI [34]: > 100 µM
- GI50 [35]: 0.3 µM
- TGI [35]: > 100 µM
- GI50 [36]: 0.139 µM
- TGI [36]: > 100 µM
- GI50 [37]: 0.289 µM
- TGI [37]: > 71.2 µM
- GI50 [38]: 0.13 µM
- TGI [38]: > 100 µM
- GI50 [39]: 0.843 µM
- TGI [39]: > 100 µM
- GI50 [40]: 0.0459 µM
- TGI [40]: > 100 µM
- GI50 [41]: 0.123 µM
- TGI [41]: 0.754 µM
- GI50 [42]: 0.104 µM
- TGI [42]: > 31.2 µM
- GI50 [43]: > 64.4 µM
- TGI [43]: > 100 µM
- GI50 [44]: 0.435 µM
- TGI [44]: 4.02 µM
- GI50 [45]: 0.383 µM
- TGI [45]: > 100 µM
- GI50 [46]: 0.8 µM
- TGI [46]: > 100 µM
- GI50 [47]: 0.285 µM
- TGI [47]: > 100 µM
- GI50 [48]: 0.0266 µM
- TGI [48]: 0.262 µM
- GI50 [49]: 0.0375 µM
- TGI [49]: > 100 µM
- GI50 [50]: 0.0732 µM
- TGI [50]: > 100 µM
- TGI [51]: > 100 µM
- GI50 [52]: > 73.8 µM
- TGI [52]: > 100 µM
- GI50 [53]: 0.116 µM
- TGI [53]: > 100 µM
- GI50 [54]: 22.2 µM
- TGI [54]: > 100 µM
- GI50 [55]: 0.0618 µM
- TGI [55]: > 100 µM
- GI50 [56]: 0.649 µM
- TGI [56]: > 100 µM
